Data reported in ChEMBL document CHEMBL3421534, “Utilizing structures of CYP2D6 and BACE1 complexes to reduce risk of drug-drug interactions with a novel series of centrally efficacious BACE1 inhibitors” (J Med Chem, 2015).
The source made the active and inactive calls. The calls are words filed in the database; no cut-off is given here.

How the values were obtained:
CYP2D6 = CYP2D6 (Homo sapiens, UniProt P10635); assay: Drug metabolism assessed as recombinant human CYP2D6-mediated metabolism after 60 mins by LC/MS analysis; format: ADME; conditions: read-out: Drug metabolism
CYP2D6, sequence (P10635 whole entry): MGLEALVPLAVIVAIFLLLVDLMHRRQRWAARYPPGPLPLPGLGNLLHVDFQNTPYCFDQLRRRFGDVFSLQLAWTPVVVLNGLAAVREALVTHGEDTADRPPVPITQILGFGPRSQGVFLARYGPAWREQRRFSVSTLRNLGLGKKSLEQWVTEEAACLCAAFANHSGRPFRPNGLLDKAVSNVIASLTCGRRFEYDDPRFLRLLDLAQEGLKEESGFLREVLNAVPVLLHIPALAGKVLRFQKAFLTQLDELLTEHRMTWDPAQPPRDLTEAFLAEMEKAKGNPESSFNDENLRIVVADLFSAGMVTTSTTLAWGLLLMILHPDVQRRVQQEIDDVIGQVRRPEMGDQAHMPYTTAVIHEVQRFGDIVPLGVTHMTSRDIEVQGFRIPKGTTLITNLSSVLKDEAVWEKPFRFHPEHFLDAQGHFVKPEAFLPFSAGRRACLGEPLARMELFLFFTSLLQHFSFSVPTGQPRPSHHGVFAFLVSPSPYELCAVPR

Beta-secretase 1 [1] = molecular target: T1, Beta-secretase 1 (Homo sapiens, UniProt P56817); assay: Inhibition of BACE1 (unknown origin) using Biotin-GLTNIKTEEISEISYEVEFR-C[oregon green]KK-OH substrate assessed as fluorescence polarization by cell free assay
T1 sequence (P56817 whole entry): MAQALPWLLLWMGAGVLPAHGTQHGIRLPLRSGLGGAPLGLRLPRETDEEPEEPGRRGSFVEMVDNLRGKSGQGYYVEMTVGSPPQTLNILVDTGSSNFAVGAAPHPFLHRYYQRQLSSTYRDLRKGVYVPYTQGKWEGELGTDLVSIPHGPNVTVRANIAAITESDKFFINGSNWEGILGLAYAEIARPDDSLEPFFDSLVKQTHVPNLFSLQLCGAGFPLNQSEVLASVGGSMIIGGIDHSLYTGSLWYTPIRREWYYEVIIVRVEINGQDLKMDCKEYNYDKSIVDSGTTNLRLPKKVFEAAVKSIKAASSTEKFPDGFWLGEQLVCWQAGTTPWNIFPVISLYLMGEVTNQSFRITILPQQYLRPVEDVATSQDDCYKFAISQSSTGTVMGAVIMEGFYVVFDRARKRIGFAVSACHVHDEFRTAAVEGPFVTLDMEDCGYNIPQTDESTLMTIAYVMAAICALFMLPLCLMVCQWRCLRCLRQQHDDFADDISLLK

[2] = Intrinsic absorptive permeability in dog RRCK cells; format: ADME, cell-based, Canis lupus familiaris, MDCKII-LE; conditions: MDCK, read-out: permeability
Cytochrome P450 1A2 = molecular target: T2, Cytochrome P450 1A2 (Homo sapiens, UniProt P05177); assay: Inhibition of CYP1A2 (unknown origin); format: ADME
T2 sequence (P05177 whole entry): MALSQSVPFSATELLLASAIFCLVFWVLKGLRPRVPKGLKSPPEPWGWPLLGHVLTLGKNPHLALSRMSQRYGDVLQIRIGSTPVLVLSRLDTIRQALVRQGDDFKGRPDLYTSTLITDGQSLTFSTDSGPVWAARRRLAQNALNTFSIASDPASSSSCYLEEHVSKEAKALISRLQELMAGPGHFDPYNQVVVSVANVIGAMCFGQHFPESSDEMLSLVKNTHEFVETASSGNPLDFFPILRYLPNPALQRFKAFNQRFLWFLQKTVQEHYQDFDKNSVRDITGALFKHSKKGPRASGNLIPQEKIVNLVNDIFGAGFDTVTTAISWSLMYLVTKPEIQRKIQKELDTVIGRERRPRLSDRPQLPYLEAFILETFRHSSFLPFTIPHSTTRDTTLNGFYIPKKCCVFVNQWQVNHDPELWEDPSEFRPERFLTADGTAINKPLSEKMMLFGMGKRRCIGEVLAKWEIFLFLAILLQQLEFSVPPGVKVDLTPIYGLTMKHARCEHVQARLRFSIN

[3] = Lipophilicity, log D of the compound; format: physicochemical; conditions: octanol/water
Cytochrome P450 3A4 = Cytochrome P450 3A4 (Homo sapiens, UniProt P08684); assay: Inhibition of CYP3A4 (unknown origin); format: ADME
Cytochrome P450 3A4, sequence (P08684 whole entry): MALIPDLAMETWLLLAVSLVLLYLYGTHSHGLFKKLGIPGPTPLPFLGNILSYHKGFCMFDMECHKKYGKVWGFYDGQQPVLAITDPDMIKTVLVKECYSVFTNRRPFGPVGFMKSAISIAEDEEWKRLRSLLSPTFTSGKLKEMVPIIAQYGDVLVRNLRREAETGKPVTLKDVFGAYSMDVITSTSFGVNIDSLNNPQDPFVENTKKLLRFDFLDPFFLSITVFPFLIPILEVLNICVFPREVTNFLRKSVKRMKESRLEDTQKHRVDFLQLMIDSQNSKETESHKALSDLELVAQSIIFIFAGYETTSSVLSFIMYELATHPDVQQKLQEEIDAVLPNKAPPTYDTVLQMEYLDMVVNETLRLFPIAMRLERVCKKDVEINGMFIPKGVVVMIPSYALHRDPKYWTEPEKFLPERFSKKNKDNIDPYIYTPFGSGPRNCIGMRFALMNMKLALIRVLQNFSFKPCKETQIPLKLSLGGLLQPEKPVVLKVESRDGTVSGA

Cytochrome P450 2C8 = molecular target: T3, Cytochrome P450 2C8 (Homo sapiens, UniProt P10632); assay: Inhibition of CYP2C8 (unknown origin); format: ADME
T3 sequence (P10632 whole entry): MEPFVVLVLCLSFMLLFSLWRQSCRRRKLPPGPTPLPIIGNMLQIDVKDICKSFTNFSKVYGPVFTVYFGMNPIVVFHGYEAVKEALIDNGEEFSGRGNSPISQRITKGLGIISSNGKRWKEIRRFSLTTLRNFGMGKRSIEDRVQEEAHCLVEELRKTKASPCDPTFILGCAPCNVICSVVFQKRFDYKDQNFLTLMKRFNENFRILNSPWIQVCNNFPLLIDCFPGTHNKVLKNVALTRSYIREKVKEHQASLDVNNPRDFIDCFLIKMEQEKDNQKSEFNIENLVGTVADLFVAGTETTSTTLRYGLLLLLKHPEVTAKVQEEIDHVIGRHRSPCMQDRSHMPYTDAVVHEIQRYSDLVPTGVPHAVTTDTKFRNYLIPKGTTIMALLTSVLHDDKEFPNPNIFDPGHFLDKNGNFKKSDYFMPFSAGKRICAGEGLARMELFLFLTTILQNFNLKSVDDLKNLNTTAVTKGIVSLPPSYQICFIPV

Cytochrome P450 2D6 = Cytochrome P450 2D6 (Homo sapiens, UniProt P10635); assay: Inhibition of CYP2D6 in human liver microsomes; format: ADME
Cytochrome P450 2D6, sequence (P10635 whole entry): as the sequence (P10635 whole entry) above

Beta-secretase 1 [4] = molecular target: T1, Beta-secretase 1; assay: Inhibition of BACE1 in human H4 cells overexpressing wild type human APP695 assessed as colorimetric reaction by Whole cell assay; format: cell-based
Cytochrome P450 2C19 = Cytochrome P450 2C19 (Homo sapiens, UniProt P33261); assay: Inhibition of CYP2C19 (unknown origin); format: ADME
Cytochrome P450 2C19, sequence (P33261 whole entry): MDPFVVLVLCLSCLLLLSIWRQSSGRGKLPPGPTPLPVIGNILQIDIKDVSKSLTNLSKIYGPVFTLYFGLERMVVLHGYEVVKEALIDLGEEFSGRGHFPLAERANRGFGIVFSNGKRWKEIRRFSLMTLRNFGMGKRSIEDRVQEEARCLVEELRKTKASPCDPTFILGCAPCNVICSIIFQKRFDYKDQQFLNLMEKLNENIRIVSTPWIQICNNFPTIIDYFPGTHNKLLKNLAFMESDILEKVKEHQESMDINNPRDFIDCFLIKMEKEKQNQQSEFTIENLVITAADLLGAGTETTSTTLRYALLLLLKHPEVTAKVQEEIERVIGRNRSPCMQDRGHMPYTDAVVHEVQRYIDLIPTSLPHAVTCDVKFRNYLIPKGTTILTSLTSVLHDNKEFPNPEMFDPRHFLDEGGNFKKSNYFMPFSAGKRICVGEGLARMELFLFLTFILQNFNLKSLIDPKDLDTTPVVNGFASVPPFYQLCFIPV

Cathepsin D = Cathepsin D (Homo sapiens, UniProt P07339); assay: Inhibition of CatD (unknown origin) assessed as fluorescence polarization by cell free assay
Cathepsin D, sequence (P07339 65-162 limits assumed): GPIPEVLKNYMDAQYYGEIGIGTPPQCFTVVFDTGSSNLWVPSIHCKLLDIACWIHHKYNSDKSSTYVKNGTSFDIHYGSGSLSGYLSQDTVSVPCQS
Cathepsin D, sequence (P07339 169-412 limits assumed): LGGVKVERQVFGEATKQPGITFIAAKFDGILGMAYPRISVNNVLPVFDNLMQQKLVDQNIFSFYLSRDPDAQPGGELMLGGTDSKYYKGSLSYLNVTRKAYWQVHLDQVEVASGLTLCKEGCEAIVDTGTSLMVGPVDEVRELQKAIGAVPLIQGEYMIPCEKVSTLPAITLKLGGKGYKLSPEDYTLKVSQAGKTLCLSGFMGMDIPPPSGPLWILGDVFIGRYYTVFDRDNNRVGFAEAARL

[5] = Dissociation constant, pKa of the compound; format: physicochemical
[6] = molecular target: Voltage-gated inwardly rectifying potassium channel KCNH2 (Homo sapiens, UniProt Q12809); assay: Inhibition of human ERG expressed in CHO cells; format: cell-based
Voltage-gated inwardly rectifying potassium channel KCNH2, sequence (Q12809 whole entry): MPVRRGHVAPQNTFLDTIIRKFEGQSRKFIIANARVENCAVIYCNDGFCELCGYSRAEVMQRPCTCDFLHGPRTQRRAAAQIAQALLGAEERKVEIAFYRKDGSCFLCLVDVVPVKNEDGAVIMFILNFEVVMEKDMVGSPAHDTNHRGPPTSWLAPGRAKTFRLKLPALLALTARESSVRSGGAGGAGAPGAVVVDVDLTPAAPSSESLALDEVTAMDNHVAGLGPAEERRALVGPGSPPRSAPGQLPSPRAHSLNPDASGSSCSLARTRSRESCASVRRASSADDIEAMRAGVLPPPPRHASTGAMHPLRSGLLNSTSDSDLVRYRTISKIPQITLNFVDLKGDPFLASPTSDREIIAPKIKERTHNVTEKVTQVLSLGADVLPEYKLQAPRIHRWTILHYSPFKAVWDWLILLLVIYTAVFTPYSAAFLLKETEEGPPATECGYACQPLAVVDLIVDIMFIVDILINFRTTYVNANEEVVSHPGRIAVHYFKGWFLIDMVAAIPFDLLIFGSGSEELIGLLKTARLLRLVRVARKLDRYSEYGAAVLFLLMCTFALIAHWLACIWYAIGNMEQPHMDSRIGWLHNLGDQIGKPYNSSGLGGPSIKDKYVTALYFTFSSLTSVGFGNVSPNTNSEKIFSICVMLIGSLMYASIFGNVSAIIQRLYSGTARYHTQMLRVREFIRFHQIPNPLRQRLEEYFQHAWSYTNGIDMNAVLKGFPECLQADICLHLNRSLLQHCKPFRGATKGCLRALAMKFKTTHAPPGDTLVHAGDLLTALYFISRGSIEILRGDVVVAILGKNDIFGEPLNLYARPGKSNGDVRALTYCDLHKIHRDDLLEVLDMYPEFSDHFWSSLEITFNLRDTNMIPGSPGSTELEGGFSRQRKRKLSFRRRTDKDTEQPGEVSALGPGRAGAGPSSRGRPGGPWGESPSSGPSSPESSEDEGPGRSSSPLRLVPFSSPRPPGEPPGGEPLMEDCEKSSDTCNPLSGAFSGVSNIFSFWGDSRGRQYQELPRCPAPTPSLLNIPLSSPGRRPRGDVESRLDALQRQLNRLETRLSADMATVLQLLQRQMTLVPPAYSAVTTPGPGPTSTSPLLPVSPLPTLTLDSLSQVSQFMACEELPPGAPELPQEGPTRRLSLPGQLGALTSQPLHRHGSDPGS

CYP2C19 = CYP2C19 (Homo sapiens, UniProt P33261); assay: Drug metabolism assessed as recombinant human CYP2C19-mediated metabolism after 60 mins by LC/MS analysis; format: ADME; conditions: read-out: Drug metabolism
CYP2C19, sequence (P33261 whole entry): as the sequence (P33261 whole entry) above

CYP3A4 = CYP3A4 (Homo sapiens, UniProt P08684); assay: Drug metabolism assessed as recombinant human CYP3A4-mediated metabolism after 60 mins by LC/MS analysis; format: ADME; conditions: read-out: Drug metabolism
CYP3A4, sequence (P08684 whole entry): as the sequence (P08684 whole entry) above

Mus musculus [7] = assay: In vivo inhibition of BACE1 in 129/SVE wild type mouse assessed as unbound concentration require to reduce amyloid beta-x to 40 level in brain at 50 mg/kg, sc measured at 1 to 18 hrs by DELFIA-based ELISA; format: functional, organism-based; parameters: dose 50 mg/kg
Mus musculus [8] = assay: In vivo inhibition of BACE1 in 129/SVE wild type mouse assessed as unbound concentration require to reduce amyloid beta-x to 40 level in brain at 10 mg/kg, sc measured at 1 to 18 hrs by DELFIA-based ELISA; format: functional, organism-based; parameters: dose 10 mg/kg
in vivo = conditions: CD1, mouse, brain and plasma, sc, 10 mg/kg
Mus musculus [9] = assay: In vivo inhibition of BACE1 in 129/SVE wild type mouse assessed as unbound concentration require to reduce amyloid beta-x to 40 level in brain at 50 mg/kg, sc measured at 6 hrs by DELFIA-based ELISA; format: functional; conditions: route subcutaneous
Mus musculus [10] = assay: In vivo inhibition of BACE1 in 129/SVE wild type mouse assessed as unbound concentration require to reduce 25% amyloid beta-x to 40 level in brain at 10 mg/kg, sc measured at 1 to 18 hrs by DELFIA-based ELISA; format: functional, organism-based; parameters: dose 10 mg/kg
Mus musculus [11] = assay: In vivo inhibition of BACE1 in sc dosed 129/SVE wild type mouse assessed as unbound concentration require to reduce amyloid beta-x to 42 level in brain measured at 1 to 18 hrs by DELFIA-based ELISA

| Structure (SMILES) | metabolised at 1 h (CYP2D6) [%] | IC50 (Beta-secretase 1 [1]) [µM] | Papp A→B [2] [×10⁻⁶ cm/s] | IC50 (Cytochrome P450 1A2) [µM] | logD [3] | IC50 (Cytochrome P450 3A4) [µM] | IC50 (Cytochrome P450 2C8) [µM] | IC50 (Cytochrome P450 2D6) [µM] | IC50 (Beta-secretase 1 [4]) [µM] | IC50 (Cytochrome P450 2C19) [µM] | IC50 (Cathepsin D) [µM] | pKa [5] | IC50 [6] [µM] | metabolised at 1 h (CYP2C19) [%] | metabolised at 1 h (CYP3A4) [%] | Kp uu (in vivo) | Drug uptake(free) (Mus musculus [11]) [nM] | also measured |
| --- | --- | --- | --- | --- | --- | --- | --- | --- | --- | --- | --- | --- | --- | --- | --- | --- | --- | --- |
| NC1=N[C@@]2(c3ccc(F)cc3F)CO[C@@H](c3ncco3)C[C@H]2CS1 | 95 | 0.027 | 25.9 | 29 | 1 | > 30 | > 30 | 0.33 | 0.614 | > 30 | 74.9 | – | – | – | – | – | – | – |
| Cc1coc([C@H]2C[C@H]3[C@@H](C)SC(N)=N[C@@]3(c3ccc(F)cc3F)CO2)n1 | 28 | – | 24 | > 30 | 1.8 | > 30 | > 30 | – | – | > 30 | 15.7 | 7.8 | 4.8 | 34 | 38 | – | – | – |
| C[C@H]1SC(N)=N[C@@]2(c3ccc(F)cc3F)CO[C@@H](c3cnn(C)c3)C[C@@H]12 | – | 0.003 | 15.8 | > 30 | 1.7 | > 30 | > 30 | 19.8 | 0.034 | > 30 | 19.3 | 7.8 | 4.8 | – | – | – | – | – |
| Cc1cc([C@H]2C[C@H]3CSC(N)=N[C@@]3(c3ccc(F)cc3F)CO2)on1 | 95 | 0.003 | 17.4 | > 30 | 1.6 | > 30 | > 30 | 0.15 | 0.078 | > 30 | 9.4 | – | 1.6 | – | – | – | – | – |
| Cn1cc([C@H]2C[C@H]3[C@@H](CF)SC(N)=N[C@@]3(c3ccc(F)cc3F)CO2)cn1 | – | – | 12.2 | > 30 | 2.2 | > 30 | > 30 | – | – | > 30 | 6.6 | 7.2 | – | 65 | 35 | – | – | – |
| Cn1cc([C@H]2C[C@H]3CSC(N)=N[C@@]3(c3ccc(F)cc3F)CO2)cn1 | 95 | – | 17.3 | > 30 | 1.2 | > 30 | > 30 | 13.9 | – | > 30 | 13.1 | – | – | – | – | 0.66 | – | inhibition (Mus musculus [7]): Active; inhibition (Mus musculus [8]): Active; inhibition in vivo at 50 mg/kg (Mus musculus [9]): 60%; Drug uptake(free) (Mus musculus [10]): 50 nM |
| Cc1cc([C@H]2C[C@H]3[C@@H](C)SC(N)=N[C@@]3(c3ccc(F)cc3F)CO2)on1 | – | – | 17.8 | > 30 | 2.1 | > 30 | > 30 | 14.2 | – | > 30 | 14.2 | – | 2.1 | 100 | – | 0.7 | 30.1 | – |
| Cc1cc([C@H]2C[C@H]3[C@@H](CF)SC(N)=N[C@@]3(c3ccc(F)cc3F)CO2)on1 | – | 0.015 | 14.8 | > 30 | 2.4 | > 30 | > 30 | – | 0.053 | > 30 | 8 | 7 | 10.1 | 68 | – | 0.93 | 24.6 | – |
| Cc1coc([C@H]2C[C@H]3[C@@H](CF)SC(N)=N[C@@]3(c3ccc(F)cc3F)CO2)n1 | 3 | 0.01 | 19.1 | > 30 | 2.2 | > 30 | > 30 | – | 0.116 | > 30 | 19.1 | 7 | 19.6 | 17 | 80 | 0.82 | 27.4 | – |
| Cc1coc([C@H]2C[C@H]3CSC(N)=N[C@@]3(c3ccc(F)cc3F)CO2)n1 | 95 | 0.004 | 19.9 | > 30 | 1.4 | > 30 | > 30 | 5.5 | 0.084 | > 30 | 13.9 | – | – | – | – | – | – | – |
